Columns and labels:
Plasma [1] = experiment: Drug uptake in C57Bl/6 mouse plasma at 10 mg/kg, iv administered as single dose measured after 60 mins by LC-MS/MS analysis; format: ADME, organism-based; details: in vivo, 1 h
Mus musculus [2] = experiment: Elimination half life in C57Bl/6 mouse assessed as platensimycin level at 10 mg/kg, iv administered as single dose by LC-MS/MS analysis; format: ADME, organism-based; details: in vivo
[3] = Ratio of drug level in C57Bl/6 mouse kidney to plasma at 10 mg/kg, iv administered as single dose measured after 60 mins by LC-MS/MS analysis; format: ADME, organism-based
Mus musculus [4] = experiment: AUC (0 to 8 hrs) in C57Bl/6 mouse assessed as platensimycin level at 10 mg/kg, iv administered as single dose by LC-MS/MS analysis; format: ADME, organism-based; set-up: dose 10 mg/kg, time < 8 hr, route intravenous; details: in vivo
Mus musculus [5] = experiment: Volume of distribution in C57Bl/6 mouse assessed as platensimycin level at 10 mg/kg, iv administered as single dose by LC-MS/MS analysis; format: ADME, organism-based; details: in vivo
Mus musculus [6] = experiment: Cmax in C57Bl/6 mouse assessed as platensimycin level at 10 mg/kg, iv administered as single dose by LC-MS/MS analysis; format: ADME, organism-based; set-up: dose 10 mg/kg, route intravenous; details: in vivo
Plasma [7] = experiment: Drug metabolism in C57Bl/6 mouse plasma assessed as platensimycin formation at 10 mg/kg, iv administered as single dose measured after 60 mins by LC-MS/MS analysis; format: ADME, organism-based; details: in vivo, 1 h
[8] = Volume of distribution in C57Bl/6 mouse at 10 mg/kg, iv administered as single dose by LC-MS/MS analysis; format: ADME, organism-based; details: in vivo
[9] = Cmax in C57Bl/6 mouse at 10 mg/kg, iv administered as single dose by LC-MS/MS analysis; format: ADME, organism-based; set-up: dose 10 mg/kg, route intravenous; details: in vivo
[10] = Observed clearance in C57Bl/6 mouse at 10 mg/kg, iv administered as single dose by LC-MS/MS analysis; format: ADME, organism-based; details: in vivo
[11] = Elimination half life in C57Bl/6 mouse at 10 mg/kg, iv administered as single dose by LC-MS/MS analysis; format: ADME, organism-based; details: in vivo, read-out: beta t1/2 (converted)
Mus musculus [12] = experiment: AUC (0 to 8 hrs) in C57Bl/6 mouse at 10 mg/kg, iv administered as single dose by LC-MS/MS analysis; format: ADME, organism-based; set-up: dose 10 mg/kg, time < 8 hr, route intravenous; details: in vivo
[13] = Drug level in C57Bl/6 mouse urine at 10 mg/kg, iv administered as single dose measured after 60 mins by LC-MS/MS analysis; format: ADME, organism-based; details: for Drug uptake: mouse, in vivo, 1 h
[14] = Drug level in C57Bl/6 mouse urine assessed as platensimycin level at 10 mg/kg, iv administered as single dose measured after 60 mins by LC-MS/MS analysis; format: ADME, organism-based; details: in vivo, 1 h
[15] = Ratio of drug level in C57Bl/6 mouse liver to plasma at 10 mg/kg, iv administered as single dose measured after 60 mins by LC-MS/MS analysis; format: ADME, organism-based
Kidney [16] = experiment: In vivo stability in C57Bl/6 mouse kidney assessed as compound hydrolysis at 10 mg/kg, iv administered as single dose measured after 60 mins by LC-MS/MS analysis; format: ADME, organism-based; details: 1 h
Kidney [17] = experiment: Drug uptake in C57Bl/6 mouse kidney at 10 mg/kg, iv administered as single dose measured after 60 mins by LC-MS/MS analysis; format: ADME, organism-based; details: in vivo, 1 h
Staphylococcus aureus = experiment: Antibacterial activity against Staphylococcus aureus ATCC 25923 after 18 hrs by broth dilution method; format: functional; details: ATCC 25923, 18 h
Liver [18] = experiment: Drug uptake in C57Bl/6 mouse liver at 10 mg/kg, iv administered as single dose measured after 60 mins by LC-MS/MS analysis; format: ADME, organism-based; details: in vivo, 1 h
Micrococcus luteus = experiment: Antibacterial activity against Micrococcus luteus ATCC 9431 after 18 hrs by broth dilution method; format: functional; details: ATCC 9431, 18 h
Liver [19] = experiment: In vivo stability in C57Bl/6 mouse liver assessed as compound hydrolysis at 10 mg/kg, iv administered as single dose measured after 60 mins by LC-MS/MS analysis; format: ADME, organism-based; details: 1 h
Plasma [20] = experiment: In vivo stability in C57Bl/6 mouse plasma assessed as compound hydrolysis at 10 mg/kg, iv administered as single dose measured after 60 mins by LC-MS/MS analysis; format: ADME, organism-based; details: 1 h
[21] = In vivo stability in C57Bl/6 mouse urine assessed as compound hydrolysis at 10 mg/kg, iv administered as single dose measured after 60 mins by LC-MS/MS analysis; format: ADME, organism-based; details: 1 h
Mus musculus [22] = experiment: Cmax in C57Bl/6 mouse assessed as platensimycin ML12 level at 10 mg/kg, iv administered as single dose by LC-MS/MS analysis; format: ADME, organism-based; set-up: dose 10 mg/kg, route intravenous; details: in vivo
Mus musculus [23] = experiment: Elimination half life in C57Bl/6 mouse assessed as platensimycin ML12 level at 10 mg/kg, iv administered as single dose by LC-MS/MS analysis; format: ADME, organism-based; details: in vivo
Mus musculus [24] = experiment: AUC (0 to 8 hrs) in C57Bl/6 mouse assessed as platensimycin ML12 level at 10 mg/kg, iv administered as single dose by LC-MS/MS analysis; format: ADME, organism-based; set-up: dose 10 mg/kg, time < 8 hr, route intravenous; details: in vivo

Drug uptake (Plasma [1])	Vd [8] [L/kg]	Cmax [9] [µM]	clearance [10] [mL/min/kg]	half-life [11] [h]	AUC (Mus musculus [12]) [µM·h]	Structure (SMILES)	Stability (Kidney [16])	Drug uptake (Kidney [17])	MIC (Staphylococcus aureus) [µg/mL]	Drug uptake (Liver [18])	MIC (Micrococcus luteus) [µg/mL]	Stability (Liver [19])	Stability (Plasma [20])	Drug uptake [13]	Stability [21]	also measured
Active	0.33	38	11	1.1	18	C[C@]12C[C@@]34C=CC(=O)[C@@](C)(CCC(=O)Nc5c(O)ccc(C(=O)S[C@H]6CC(=O)[C@@](C)(CCC(=O)Nc7c(O)ccc(C(=O)O)c7O)[C@@H]7[C@@H]8C[C@@H]9C[C@]67C[C@]9(C)O8)c5O)[C@@H]3[C@H](C[C@@H]1C4)O2	–	–	–	–	–	–	–	–	–	beta t1/2 (Mus musculus [2]): 1.9 h; Kp at 1 h [3]: 0.2; AUC (Mus musculus [4]): 6.3 µM·h; Vd (Mus musculus [5]): 2.5 L/kg; Cmax (Mus musculus [6]): 15 µM; Drug metabolism (Plasma [7]): Metabolite_Detected; dose excreted at 1 h ([13]; C57Bl/6, mouse, urine, read-out: Drug uptake): < 1%; Drug uptake [14]: < 1%; Kp at 1 h [15]: 0.6
–	0.08	150	3	0.76	71	C[C@@]1(O)C[C@]23C[C@H]1CC[C@H]2[C@]1(C)CCC(=O)Nc2c(O)ccc(c2O)C(=O)S[C@H]2CC(=O)[C@@](C)(CCC(=O)Nc4c(O)ccc(c4O)C(=O)S[C@H]3CC1=O)[C@@H]1CC[C@@H]3C[C@]21C[C@@]3(C)O	–	–	–	–	–	–	–	–	–	Cmax (Mus musculus [22]): 2.3 µM; beta t1/2 (Mus musculus [23]): 1.8 h; AUC (Mus musculus [24]): 2.5 µM·h
Active	–	–	–	–	–	C[C@]12C[C@@]34C=CC(=O)[C@@](C)(CCNC(=O)Nc5c(O)ccc(C(=O)O)c5O)[C@@H]3[C@H](C[C@@H]1C4)O2	Stable	Active	> 64	Active	> 64	Stable	Stable	Active	Stable	–

Structure (SMILES)	Drug uptake (Plasma [1])	Vd [8] [L/kg]	Cmax [9] [µM]	clearance [10] [mL/min/kg]	half-life [11] [h]	AUC (Mus musculus [12]) [µM·h]	Stability (Kidney [16])	Drug uptake (Kidney [17])	MIC (Staphylococcus aureus) [µg/mL]	Drug uptake (Liver [18])	MIC (Micrococcus luteus) [µg/mL]	Stability (Liver [19])	Stability (Plasma [20])	Drug uptake [13]	Stability [21]	also measured
C[C@]12C[C@@]34C=CC(=O)[C@@](C)(CCNC(=O)Oc5c(O)ccc(C(=O)O)c5O)[C@@H]3[C@H](C[C@@H]1C4)O2	Active	–	–	–	–	–	Stable	Active	> 64	Active	> 64	Stable	Stable	Active	Stable	–
